From patent publication US20080182880A1, “PIOGLITAZONE COMPOSITION” (priority 2006, published 2008)
Like-named read-outs stand apart in the source and are kept apart here.

Assay: Comparative bioavailability of Trial 2 of Example 4 and ACTOS tablets 45 mg, open label randomized cross-over single dose study, fasting, 55 subjects
Assay type: in vivo
Conditions: human, plasma, oral, calculated from Table 6 results, single dose to humans
Protocol: In determining bioequivalence, for example, between two products such as a commercially available product and a proposed product, pharmacokinetic studies are conducted whereby each of the preparations is administered in a crossover study to volunteer subjects. Serum plasma samples are obtained at regular intervals and assayed for parent drug (or occasionally metabolite) concentrations. For a pharmacokinetic comparison, the plasma concentration data are used to assess key pharmacokinetic parameters such as area under the plasma concentration-time curve (AUC), peak concentration (Cmax) and time to peak plasma concentration (Tmax).
R represents reference product, i.e., ACTOS tablets 45 mg.
Study design: Open label randomized cross-over single dose study under fasting conditions.

AUC(0-inf) (read-out: therapeutically equivalent range of plasma pioglitazone AUC0-∞): 12300 to 19100 ng·h/mL
AUC(0-inf) (read-out: therapeutically equivalent range of plasma pioglitazone AUC0-∞T): 11900 to 18500 ng·h/mL
Cmax (read-out: therapeutically equivalent range of plasma pioglitazone Cmax): 1030 to 1610 ng/mL
Compound: CCc1ccc(CCOc2ccc(CC3SC(=O)NC3=O)cc2)nc1 (racemic) [Pioglitazone, (±)-5-[[4-[2-(5-ethyl-2-pyridinyl)ethoxy]phenyl]methyl]-2,4-]thiazolidinedione]
